According to patent US20120252834A1 (priority 2009, published 2012):
Where two headings read alike, the source gives them in different places.

What was measured:
[1] = test system: SEB-induced toxic shock in C3H/HeJ mice; settings: mouse, in vivo
PBMC = assay: Trypan Blue exclusion test on PBMC; settings: data not shown
[2] = test system: serum MCP-1, IL-6 and IL-2 in SEB-treated mice; settings: mouse, in vivo
[3] = test system: SEB-induced proliferation of T cells in PBMC; assay: cells; type: cell-based, human
[4] = test system: peripheral blood cells and splenocytes from mice treated with SEB; assay: Cellular apoptosis by JC-1 fluorescence (flow cytometry) in SEB-treated mice; type: in vivo, mouse; settings: rapamycin 0.16 mg/kg i.n. at 17 h, cells taken 18 h after SEB
Description: Detection of cellular apoptosis by measuring fluorescence of mitochondrial J-aggregates. The loss of mitochondrial permeability, indicative of cellular apoptosis was detected by a fluorescent cationic dye, JC-1 (51). Briefly, peripheral blood or spleens were removed at 18 h from mice treated with SEB, SEB plus 0.16 mg/kg of intranasal rapamycin at 17 h after SEB exposure. Negative controls consisted of mice treated with DMSO at 17 h after saline. Red blood cells from peripheral blood and spleens were lyzed with FACS lyzing buffer (Becton Dickinson, Mountainview, Calif.) prior to staining with JC-1 dye according to manufacturer's instructions (Immunochemistry Technology, Bloomington, Minn.). Flow cytometer (Becton Dickinson) was used to measure cell fluorescence at 530 nm, which represents apoptotic cells.

[5] = test system: lung MCP-1, IL-2 and IL-6 in SEB-exposed mice; settings: mouse, in vivo
[6] = cited from earlier work
[7] = Determination of rapamycin in murine whole blood (HPLC, ion-trap MS); type: in vivo; settings: mouse; for concentration at 1 h / concentration at 97 h: C3H/HeJ, whole blood; for concentration at 1 h: read-out: blood level of rapamycin
Description: Determination of rapamycin in murine whole blood. Blood was collected from rapamycin-treated mice (n=5) by retro-orbital bleeding into EDTA tubes 1 h after intranasal administration of rapamycin. Blood was centrifuged at 12000×g for 3 min to remove cells. Supernatants was removed and stored at −70° C. until analysis. Analysis of rapamycin was performed as previously described (23) using an Agilent Technologies series 1100 Capillary HPLC instrument and ion-trap mass spectrometer.

[8] = test system: SEA-, TSST-1-, SPEA-, and SPEC-stimulated human peripheral blood mononuclear cells; type: cell-based; settings: rapamycin 1 μg/mL
[9] = test system: human PBMC stimulated with SEB; assay: cells; type: cell-based; settings: for inhibition at 6.9 µg/mL: Homo sapiens, PBMC, 16 h

For `C[C@@H]1C[C@H]2[C@@H]3CCC4=CC(=O)C=C[C@]4(C)[C@@]3(F)[C@@H](O)C[C@]2(C)[C@@]1(O)C(=O)CO` [dexamethasone], the lethality [1] was 90%.

In the case of `CO[C@H]1C[C@@H]2CC[C@@H](C)[C@@](O)(O2)C(=O)C(=O)N2CCCC[C@H]2C(=O)O[C@H]([C@H](C)C[C@@H]2CC[C@@H](O)[C@H](OC)C2)CC(=O)[C@H](C)/C=C(\C)[C@@H](O)[C@@H](OC)C(=O)[C@H](C)C[C@H](C)/C=C/C=C/C=C/1C` [rapamycin], the “cytotoxic effect (Trypan Blue exclusion)” value (PBMC) is reported as “not due to cytotoxic effect”, the “reduction of peak serum IL-6” value [2] is reported as 80% and the “reduction of peak serum MCP-1” value [2] is reported as 90%. The “reduction of T cell proliferation” value [3] was 56%, the inhibition at 6.9 µg/mL ([3]; Homo sapiens, T-cell, 48 h, read-out: inhibition of SEB-induced T cell proliferation (maximal)) was 94% and the “decrease in number of apoptotic cells” value ([4]; mouse peripheral blood) was 66%. For the same molecule, the “decrease in number of apoptotic cells” value ([4]; mouse spleen) was 74%, the “attenuation of lung IL-2” value [5] was 80% and the “attenuation of lung IL-6” value [5] was 65%. For the same molecule, the “attenuation of lung MCP-1” value [5] was 56%, the “blood concentrations of rapamycin” value ([6]; healthy subjects, 1 h after 15 mg of rapamycin) was 78.2 ± 18 ng/mL and the “blood levels of rapamycin” value ([6]; renal transplantation, 5 mg/day, at 1.8 h) was 37.4 ± 21 ng/mL. It also gave a concentration at 1 h ([7]; other: intranasal followed by intraperitoneal, 1 h after multiple dosing (2 i.n. doses plus 1 i.p. dose)) of 692 ± 406 ng/mL, a concentration at 97 h ([7]; other: intranasal followed by intraperitoneal, at 97 h, lower doses (0.03 mg/kg i.n. at 2 and 5 h, 0.08 mg/kg i.p. at 24, 48, 72 and 96 h)) of 38 ± 15 ng/mL and a concentration at 97 h ([7]; other: intranasal followed by intraperitoneal, at 97 h after multiple dosing (i.n. 0.7 mg/kg at 2 and 5 h, i.p. 1.6 mg/kg at 30, 48, 72 and 96 h)) of 622 ± 282 ng/mL. For the same molecule, the concentration at 1 h ([7]; other: intranasal, 0.7 mg/kg, 1 h after an i.n. dose of 0.7 mg/kg) was 492 ± 204 ng/mL, the “blood level of rapamycin” value ([7]; 1 h after an i.n. dose of 0.7 mg/kg, 0.7 mg/kg) was 658 ± 408 ng/mL and the “effective in protecting mice from SEB-mediated shock” value [1] was 100%. The protected [1] was 100%, the protection [1] was 20% and the weight gain [1] was 8-17%. For the same molecule, the “reduction of superantigen-induced T cell proliferation” value ([8]; SEA-stimulated) was 74%, the “reduction of superantigen-induced T cell proliferation” value ([8]; SPEA-stimulated) was 68% and the “reduction of superantigen-induced T cell proliferation” value ([8]; SPEC-stimulated) was 69%. For the same molecule, the “reduction of superantigen-induced T cell proliferation” value ([8]; TSST-1-stimulated) was 42%, the “suppression of IFNγ” value [9] was 36% and the “suppression of IL-2” value [9] was 34%. For the same molecule, the inhibition at 6.9 µg/mL ([9]; read-out: inhibition of IL-1β production) was 97%, the inhibition at 6.9 µg/mL ([9]; read-out: inhibition of IL-2 production) was 100% and the inhibition at 6.9 µg/mL ([9]; read-out: inhibition of IL-6 production) was 67%. For the same molecule, the inhibition at 6.9 µg/mL ([9]; read-out: inhibition of TNFα production) was 77%.
